In the supplement of paper PMC11061612:

Tests used:
[1] = system: A4-Fuk (B-Lymphoblastic Leukemia); assay: Bliss excess, mean over the matrix (fraction); higher = more synergy
Method in brief: (§1)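 Cell lines grown in DMEM/F12 or RPMI with 10% FBS were plated in 1536-well plates and held 24 hours at 37°C, 5% CO2 before 72 hours of exposure to two-drug dose matrices, with DMSO typically at 0.2%. CellTiter-Glo 2.0 luminescence gave viability, which was converted to inhibition. Vehicle wells were set to 0 and blank wells to 1. Combination Emax is the second-highest inhibition in the matrix, and Bliss excess is the observed combination effect minus the expected EA + EB − EA·EB, where EA and EB are the single-agent effects.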

[2] = system: COLO-668 (Small Cell Lung Carcinoma); assay: as above
Method in brief: as §1

[3] = system: KGN (Other Solid Carcinomas); assay: as above
Method in brief: as §1

[4] = system: KMRC-1 (Kidney Carcinoma); assay: as above
Method in brief: as §1

[5] = system: Mo-T (Other Blood Carcinomas); assay: as above
Method in brief: as §1

[6] = system: NCI-H1355 (Lung Adenocarcinoma); assay: as above
Method in brief: as §1

[7] = system: NCI-H1993 (Lung Adenocarcinoma); assay: as above
Method in brief: as §1

[8] = system: NCI-H522 (Lung Adenocarcinoma); assay: as above
Method in brief: as §1

[9] = system: OE33 (Esophageal Adenocarcinoma); assay: as above
Method in brief: as §1

SK-N-AS (Neuroblastoma) = assay: as above
Method in brief: as §1

[10] = system: SKN (Other Solid Carcinomas); assay: as above
Method in brief: as §1

[11] = system: SNU-387 (Hepatocellular Carcinoma); assay: as above
Method in brief: as §1

[12] = system: NCI-H1355 (Lung Adenocarcinoma); assay: combination Emax (second highest fraction inhibited in the dose matrix, 72 h); higher = more inhibition; extreme values may be limits of the assay
Method in brief: as §1

[13] = system: OE33 (Esophageal Adenocarcinoma); assay: as above
Method in brief: as §1
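For Bliss excess, mean over the matrix in this document: after 72 h of two-drug dosing.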

Structure (SMILES)	Bliss excess [1]	Bliss excess [2]	Bliss excess [3]	Bliss excess [4]	Bliss excess [5]	Bliss excess [6]	Bliss excess [7]	Bliss excess [8]	Bliss excess [9]	Bliss excess (SK-N-AS (Neuroblastoma))	Bliss excess [10]	Bliss excess [11]	combination Emax [12]	combination Emax [13]
O=C(c1cc(Cc2n[nH]c(=O)c3ccccc23)ccc1F)N1CCN(C(=O)C2CC2)CC1 [Olaparib] + Cc1c2c(nn1C)CSCc1cc(n(C)n1)CSc1cc(c3ccccc3c1)OCCCc1c(C(=O)O)n(C)c3c-2c(Cl)ccc13 [AZD5991] (first compound max 10 µM, 7x7, partner max 1 µM)	-0.0387	-0.0495	-0.0651	-0.0784	-0.0492	-0.0595	-0.0275	-0.0062	-0.0543	-0.0347	-0.0407	-0.0935	0.146	0.0347
O=C(c1cc(Cc2n[nH]c(=O)c3ccccc23)ccc1F)N1CCN(C(=O)C2CC2)CC1 [Olaparib] + CN(CC[C@H](CSC1=CC=CC=C1)NC2=C(C=C(C=C2)S(=O)(=O)NC(=O)C3=CC=C(C=C3)N4CCC(CC4)[C@H](C5=CC=CC=C5C6=CC=C(C=C6)Cl)O)S(=O)(=O)C(F)(F)F)CCO [AZD4320] (first compound max 10 µM, 7x7, partner max 1 µM)	-0.0428	0.0025	-0.0153	-0.0501	-0.0065	-0.0336	-0.0405	-0.0566	-0.037	-0.0291	-0.0712	-0.0863	0.198	0.105
Cc1c2c(nn1C)CSCc1cc(n(C)n1)CSc1cc(c3ccccc3c1)OCCCc1c(C(=O)O)n(C)c3c-2c(Cl)ccc13 [AZD5991] + CS(=O)(=O)CCNCc1ccc(-c2ccc3ncnc(Nc4ccc(OCc5cccc(F)c5)c(Cl)c4)c3c2)o1 [Lapatinib] (first compound max 1 µM, 7x7, partner max 10 µM)	0.0199	0.0395	-0.0049	-0.0282	-0.0344	0.0127	–	0.0118	-0.042	-0.0363	-0.0365	-0.028	0.326	0.529
CC1(C)CCC(CN2CCN(c3ccc(C(=O)NS(=O)(=O)c4ccc(NCC5CCOCC5)c([N+](=O)[O-])c4)c(Oc4cnc5[nH]ccc5c4)c3)CC2)=C(c2ccc(Cl)cc2)C1 [Venetoclax] + CS(=O)(=O)CCNCc1ccc(-c2ccc3ncnc(Nc4ccc(OCc5cccc(F)c5)c(Cl)c4)c3c2)o1 [Lapatinib] (first compound max 1 µM, 7x7, partner max 10 µM)	-0.0406	0.0091	-0.0609	-0.0584	-0.0092	-0.0548	-0.0311	-0.0378	-0.0315	-0.0432	-0.0497	-0.0514	0.16	0.485
C[C@@H](Nc1cc(F)cc(F)c1)c1cc(C(=O)N(C)C)cc2c(=O)cc(N3CCOCC3)oc12 [AZD8186] + CC(=O)c1c(C)c2cnc(Nc3ccc(N4CCNCC4)cn3)nc2n(C2CCCC2)c1=O [Palbociclib] (first compound max 10 µM, 7x7, partner max 10 µM)	0.138	0.0261	0.0548	-0.0156	-0.0319	0.0321	0.0847	-0.0596	0.0115	0.0334	0.0142	-0.0459	0.425	0.477
C[C@@H]1COCCN1c1cc(C2([S@](C)(=N)=O)CC2)nc(-c2ccnc3[nH]ccc23)n1 [AZD6738] + Nc1ccn([C@@H]2O[C@H](CO)[C@@H](O)C2(F)F)c(=O)n1 [Gemcitabine] (first compound max 10 µM, 7x7, partner max 0.3 µM)	-0.0486	0.0525	0.0065	0.0601	0.002	0.0732	-0.0098	0.122	-0.0518	0.0469	0.0033	0.0597	0.722	0.752
C[C@@H](Nc1cc(F)cc(F)c1)c1cc(C(=O)N(C)C)cc2c(=O)cc(N3CCOCC3)oc12 [AZD8186] + C1CN(CCC1(C(=O)N[C@@H](CCO)C2=CC=C(C=C2)Cl)N)C3=NC=NC4=C3C=CN4 [AZD5363] (first compound max 10 µM, 7x7, partner max 10 µM)	-0.0183	-0.002	0.0547	-0.0524	-0.0393	-0.0244	0.0154	-0.0426	-0.0329	-0.0294	-0.1	-0.0959	0.395	0.332
O=C(c1cc(Cc2n[nH]c(=O)c3ccccc23)ccc1F)N1CCN(C(=O)C2CC2)CC1 [Olaparib] + COc1nnc2ccc(N3CCC(c4ccc(OCCN5CCN(C)C(=O)[C@H]5C)cc4)CC3)nn12 [AZD5153] (first compound max 10 µM, 7x7, partner max 1 µM)	-0.0412	-0.0335	0.018	-0.0556	-0.0413	-0.11	-0.0529	-0.0528	-0.057	-0.0662	-0.0557	-0.0768	0.335	0.224
Cc1c2c(nn1C)CSCc1cc(n(C)n1)CSc1cc(c3ccccc3c1)OCCCc1c(C(=O)O)n(C)c3c-2c(Cl)ccc13 [AZD5991] + Nc1ccn([C@@H]2O[C@H](CO)[C@@H](O)C2(F)F)c(=O)n1 [Gemcitabine] (first compound max 1 µM, 7x7, partner max 0.3 µM)	-0.0182	-0.0674	-0.0457	-0.0638	-0.0226	-0.0333	-0.0064	0.091	0.0018	0.0183	-0.0331	-0.0021	0.455	0.543
CS(=O)(=O)CCNCc1ccc(-c2ccc3ncnc(Nc4ccc(OCc5cccc(F)c5)c(Cl)c4)c3c2)o1 [Lapatinib] + Cn1cnc2c(F)c(Nc3ccc(Br)cc3Cl)c(C(=O)NOCCO)cc21 [Selumetinib] (first compound max 10 µM, 7x7, partner max 10 µM)	-0.045	-0.0388	0.0232	-0.0772	-0.0542	-0.0323	0.0118	-0.0304	-0.0143	0.0034	-0.0349	0.0212	0.472	0.743
C=CCn1c(=O)c2cnc(Nc3ccc(N4CCN(C)CC4)cc3)nc2n1-c1cccc(C(C)(C)O)n1 [AZD1775] + Nc1ccn([C@@H]2O[C@H](CO)[C@@H](O)C2(F)F)c(=O)n1 [Gemcitabine] (first compound max 1 µM, partner max 0.3 µM)	0.009	-0.0734	0.0009	-0.0495	-0.0204	0.0478	-0.0021	0.0486	-0.0157	-0.0254	-0.0709	-0.0035	0.614	0.616
O=C(c1cc(Cc2n[nH]c(=O)c3ccccc23)ccc1F)N1CCN(C(=O)C2CC2)CC1 [Olaparib] + CC1(C)CCC(CN2CCN(c3ccc(C(=O)NS(=O)(=O)c4ccc(NCC5CCOCC5)c([N+](=O)[O-])c4)c(Oc4cnc5[nH]ccc5c4)c3)CC2)=C(c2ccc(Cl)cc2)C1 [Venetoclax] (first compound max 10 µM, 7x7, partner max 1 µM)	-0.0118	-0.0261	-0.0145	-0.0522	-0.0336	-0.0524	-0.0397	-0.0627	-0.0457	-0.031	-0.0516	-0.0285	0.172	0.139
Cc1nc(-c2cn3c(n2)-c2ccc(-c4cnn(C(C)(C)C(N)=O)c4)cc2OCC3)n(C(C)C)n1 [Taselisib] + O=C(Nc1ccc2[nH]nc(-c3ccncc3)c2c1)[C@@H]1CCN(CC(=O)N2CCN(c3ccc(-c4ncccn4)cc3)CC2)C1 [SCH772984] (first compound max 10 µM, 7x7, partner max 5 µM)	0.0883	0.0737	0.0378	-0.0377	0.0526	-0.0124	0.111	0.057	0.0674	0.0187	-0.0535	0.122	0.656	0.831
C[C@@H]1COCCN1c1cc(C2([S@](C)(=N)=O)CC2)nc(-c2ccnc3[nH]ccc23)n1 [AZD6738] + C1CC(C1)(C(=O)[O-])C(=O)[O-].N.N.[Pt+2] [Carboplatin] (first compound max 10 µM, 7x7, partner max 10 µM)	-0.0571	0.025	-0.0084	-0.0289	-0.0272	-0.0345	-0.0211	-0.0584	-0.0416	-0.0538	-0.0766	-0.0308	0.581	0.771
C[C@@H](Oc1cc(-c2cnn(C3CCNCC3)c2)cnc1N)c1c(Cl)ccc(F)c1Cl [Crizotinib] + CC1=C(C(=CC=C1)Cl)NC(=O)C2=CN=C(S2)NC3=CC(=NC(=N3)C)N4CCN(CC4)CCO [Dasatinib] (first compound max 10 µM, 7x7, partner max 2 µM)	-0.0089	-0.0289	-0.0204	0.0644	-0.0588	-0.0431	-0.0147	-0.0033	0.0828	-0.0164	0.0295	0.0371	0.289	0.853
CN(CCO)CC[C@H](CSc1ccccc1)Nc1ccc(S(=O)(=O)NC(=O)c2ccc(N3CCC([C@@H](O)c4ccccc4-c4ccc(Cl)cc4)CC3)cc2)cc1S(=O)(=O)C(F)(F)F [AZD4320] + CS(=O)(=O)CCNCc1ccc(-c2ccc3ncnc(Nc4ccc(OCc5cccc(F)c5)c(Cl)c4)c3c2)o1 [Lapatinib] (first compound max 1 µM, 7x7, partner max 10 µM)	-0.0065	0.0881	-0.0448	0.0223	0.0485	0.0077	0.0682	-0.0206	0.0519	-0.0397	-0.0188	0.0496	0.264	0.806
Cc1c2c(nn1C)CSCc1cc(n(C)n1)CSc1cc(c3ccccc3c1)OCCCc1c(C(=O)O)n(C)c3c-2c(Cl)ccc13 [AZD5991] + CC(=O)O[C@H]1C(=O)[C@@]2(C)[C@H]([C@H](OC(=O)c3ccccc3)[C@]3(O)C[C@H](OC(=O)[C@H](O)[C@@H](NC(=O)c4ccccc4)c4ccccc4)C(C)=C1C3(C)C)[C@]1(OC(C)=O)CO[C@@H]1C[C@@H]2O [Paclitaxel] (first compound max 1 µM, 7x7, partner max 3 µM)	-0.0069	0.028	0.0025	0.0286	-0.0521	-0.0431	-0.037	0.056	-0.0386	-0.0065	-0.007	0.0019	0.76	0.524
